Tested on: not given
Test: not given
Settings: not given

melting point	SMILES
167 to 168 °C	COc1ccc(CC(=O)O)cc1C(=O)NCc1ccc(C(F)(F)F)cc1 [Example 2, 4-Methoxy-3-[N-(4-trifluoromethylbenzyl)]carbamoylphenylacetic acid]
235.5 to 236.5 °C	COc1ccc(C(=O)O)cc1C(=O)NCc1ccc(C(F)(F)F)cc1 [Example 1, 4-Methoxy-3-[N-(4-trifluoromethylbenzyl)carbamoyl]benzoic acid]
152.5 to 153.5 °C	COc1ccc(CC(SC)C(N)=O)cc1C(=O)NCc1ccc(C(F)(F)F)cc1 (stereo not shown) [Example 3, 5-[2-Carbamoyl-2-(methylthio)ethyl]-2-methoxy-N-(4-trifluoromethylbenzyl)benzamide]
170 to 171 °C	COc1ccc(CC(C(N)=O)[S+](C)[O-])cc1C(=O)NCc1ccc(C(F)(F)F)cc1 (stereo not shown) [Example 4, 5-[2-Carbamoyl-2-(methylsulfinyl)ethyl]-2-methoxy-N-(4-trifluoromethylbenzyl)benzamide]
158 to 159 °C	COc1ccc(CC(C(=O)O)S(C)(=O)=O)cc1C(=O)NCc1ccc(C(F)(F)F)cc1 (stereo not shown) [Example 9, 3-[4-Methoxy-3-[N-(4-trifluoromethylbenzyl)]carbamoylphenyl]-2-(methylsulfonyl)propionic acid]
219 to 220 °C	COc1ccc(CC(C(N)=O)S(C)(=O)=O)cc1C(=O)NCc1ccc(C(F)(F)F)cc1 (stereo not shown) [Example 5, 5-[2-Carbamoyl-2-(methylsulfonyl)ethyl]-2-methoxy-N-(4-trifluoromethylbenzyl)benzamide]
159 to 161 °C	COc1ccc(CC(S)C(N)=O)cc1C(=O)NCc1ccc(C(F)(F)F)cc1 (stereo not shown) [Example 6, 5-(2-Carbamoyl-2-mercaptoethyl)-2-methoxy-N-(4-trifluoromethylbenzyl)benzamide]

Molecular target: T1, ligand binding domain of human type PPARα fused with DNA-binding domain of GAL4 (Homo sapiens, UniProt Q07869)
T1 construct: expressed in transfected cells; host or cells: CHO cells
T1 sequence (Q07869 239-466 limits assumed): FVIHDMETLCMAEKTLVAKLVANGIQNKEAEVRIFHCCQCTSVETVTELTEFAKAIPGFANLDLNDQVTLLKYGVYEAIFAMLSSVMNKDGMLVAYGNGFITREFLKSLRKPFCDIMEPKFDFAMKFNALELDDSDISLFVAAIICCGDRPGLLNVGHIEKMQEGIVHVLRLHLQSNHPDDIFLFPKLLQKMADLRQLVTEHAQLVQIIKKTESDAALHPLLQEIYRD
Test: Test of transcriptional activation on peroxisome proliferator-activated receptor α (GAL4 chimera luciferase reporter in CHO cells)
Assay type: cell-based
Settings: CHO cells cotransfected with GAL4-human PPARα LBD receptor plasmid and luciferase reporter; luciferase activity after 24 hours
Excerpt: Test of transcriptional activation on peroxisome proliferator-activated receptors α and γ
To CHO cells cultured in a Ham's F-12 medium with 10% fetal calf serum, receptor plasmid that expresses fused protein of DNA-binding domain of GAL4 being transcription factor of yeast with ligand binding domain of human type PPARs α and γ (Biochemistry, 1993, 32, 5598), firefly luciferase reporter plasmid (Promega Corp.) that is activated by GAL4 and sea shiitake mushroom luciferase plasmid (Promega Corp.) for internal standard were cotransfected with lipofectamine. Thereafter, testing compound dissolved into dimethyl sulfoxide (DMSO) (final concentration of DMSO 0.1%) and control drug were adjusted with Ham's F-12 medium containing 10% defatted fetal calf serum to culture. After 24 hours, the luciferase activity was measured.

EC50	SMILES
2100 nM	COc1ccc(CC(SC)C(N)=O)cc1C(=O)NCc1ccc(C(F)(F)F)cc1 (stereo not shown) [Example 3, 5-[2-Carbamoyl-2-(methylthio)ethyl]-2-methoxy-N-(4-trifluoromethylbenzyl)benzamide]
1300 nM	CCCCC/C=C\C/C=C\C=C\[C@@H](O)C/C=C\CCCC(=O)O [(8S)-HETE, 8-hydroxyeicosatetraenoic acid, reference compound]
1200 nM	COc1ccc(CC(SC)C(=O)O)cc1C(=O)NCc1ccc(C(F)(F)F)cc1 (stereo not shown) [Example 7, 3-[4-Methoxy-3-[N-(4-trifluoromethylbenzyl)]carbamoylphenyl]-2-(methylthio)propionic acid]
